For experiment [1], the target named is T1, Mitogen-activated protein kinase kinase kinase kinase 2 (Homo sapiens) (UniProt Q12851).
T1 sequence (whole entry): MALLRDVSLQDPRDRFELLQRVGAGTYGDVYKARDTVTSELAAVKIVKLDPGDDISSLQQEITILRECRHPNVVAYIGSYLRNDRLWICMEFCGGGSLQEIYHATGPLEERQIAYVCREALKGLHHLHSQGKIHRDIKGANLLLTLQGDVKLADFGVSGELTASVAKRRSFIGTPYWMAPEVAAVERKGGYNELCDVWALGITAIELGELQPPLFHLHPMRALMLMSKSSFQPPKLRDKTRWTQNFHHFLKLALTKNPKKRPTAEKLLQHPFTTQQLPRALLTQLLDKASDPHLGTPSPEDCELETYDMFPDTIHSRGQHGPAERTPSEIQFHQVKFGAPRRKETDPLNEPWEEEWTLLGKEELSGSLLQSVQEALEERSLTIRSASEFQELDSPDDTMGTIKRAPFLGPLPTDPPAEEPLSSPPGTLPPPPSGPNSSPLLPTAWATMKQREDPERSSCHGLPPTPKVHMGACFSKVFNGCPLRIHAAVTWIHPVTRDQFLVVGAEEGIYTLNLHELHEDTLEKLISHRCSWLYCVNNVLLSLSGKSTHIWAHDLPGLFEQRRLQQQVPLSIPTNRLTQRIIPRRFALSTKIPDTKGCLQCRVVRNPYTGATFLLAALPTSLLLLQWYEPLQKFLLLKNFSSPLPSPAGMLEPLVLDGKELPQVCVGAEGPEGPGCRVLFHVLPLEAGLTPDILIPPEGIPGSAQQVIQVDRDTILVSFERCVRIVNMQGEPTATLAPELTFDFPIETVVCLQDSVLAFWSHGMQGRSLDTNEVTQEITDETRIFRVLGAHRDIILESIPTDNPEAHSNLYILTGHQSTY
The experiment can be described thus: Selectivity interaction (Ambit KINOMEscan and KiNATiv profiling in Jurkat cells) EUB0000090b MAP4K2. The experiment is classed as cell-based. As to conditions: at 1 µM.

Experiment [2] deals with Serine/threonine-protein kinase Nek6 (Homo sapiens) (UniProt Q9HC98). The experiment can be described thus: Selectivity interaction (SelectScreen profiling (Invitrogen)) EUB0000607a NEK6. The note with it: at 2 µM.
Sequence of Serine/threonine-protein kinase Nek6 (Homo sapiens) (Q9HC98 whole entry, canonical isoform): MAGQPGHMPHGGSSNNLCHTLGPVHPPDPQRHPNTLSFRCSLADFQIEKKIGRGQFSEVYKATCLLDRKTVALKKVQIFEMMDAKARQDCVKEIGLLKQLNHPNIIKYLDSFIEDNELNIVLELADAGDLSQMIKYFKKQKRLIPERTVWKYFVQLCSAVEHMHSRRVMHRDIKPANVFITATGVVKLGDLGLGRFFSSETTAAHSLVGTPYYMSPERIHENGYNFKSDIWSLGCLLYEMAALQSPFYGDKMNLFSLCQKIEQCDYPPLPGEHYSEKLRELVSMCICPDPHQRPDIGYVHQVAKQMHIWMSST
Experiment [3] deals with T2, Phosphatidylinositol 4,5-bisphosphate 3-kinase catalytic subunit delta isoform (Homo sapiens) (UniProt O00329).
T2 sequence (whole entry): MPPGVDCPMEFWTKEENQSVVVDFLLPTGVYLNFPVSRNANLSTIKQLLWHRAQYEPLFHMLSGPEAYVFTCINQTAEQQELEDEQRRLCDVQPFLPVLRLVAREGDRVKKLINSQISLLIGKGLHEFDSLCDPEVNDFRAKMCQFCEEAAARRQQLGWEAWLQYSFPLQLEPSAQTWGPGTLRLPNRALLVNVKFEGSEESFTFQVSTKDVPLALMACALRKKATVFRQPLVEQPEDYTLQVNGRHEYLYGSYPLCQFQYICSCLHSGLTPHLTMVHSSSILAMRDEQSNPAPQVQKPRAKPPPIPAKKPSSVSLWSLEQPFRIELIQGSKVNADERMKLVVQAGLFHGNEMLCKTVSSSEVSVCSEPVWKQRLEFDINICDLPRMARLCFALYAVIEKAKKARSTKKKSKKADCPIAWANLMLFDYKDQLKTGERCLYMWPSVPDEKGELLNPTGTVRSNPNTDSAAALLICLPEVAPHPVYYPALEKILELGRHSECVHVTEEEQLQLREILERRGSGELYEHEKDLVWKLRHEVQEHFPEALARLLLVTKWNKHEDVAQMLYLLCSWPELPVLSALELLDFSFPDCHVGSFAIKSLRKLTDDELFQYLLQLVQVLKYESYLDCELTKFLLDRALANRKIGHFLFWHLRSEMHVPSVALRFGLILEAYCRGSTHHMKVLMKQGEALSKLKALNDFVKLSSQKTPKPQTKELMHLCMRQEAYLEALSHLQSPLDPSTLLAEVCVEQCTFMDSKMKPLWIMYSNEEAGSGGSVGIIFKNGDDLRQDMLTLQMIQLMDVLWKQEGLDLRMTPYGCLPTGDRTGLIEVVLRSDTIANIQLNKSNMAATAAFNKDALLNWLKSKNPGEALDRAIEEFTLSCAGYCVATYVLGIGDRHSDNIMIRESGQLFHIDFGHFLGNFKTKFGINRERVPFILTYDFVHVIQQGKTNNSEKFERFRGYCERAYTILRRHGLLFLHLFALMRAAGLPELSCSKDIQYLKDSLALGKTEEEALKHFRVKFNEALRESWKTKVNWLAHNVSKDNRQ
Description: Selectivity interaction (KinomeScan (DiscoverX)) EUB0000607a PIK3CD. As to conditions: at 10 µM.

For experiment [4], the target named is Serine/threonine-protein kinase PAK 6 (Homo sapiens) (UniProt Q9NQU5). Description: Selectivity interaction (KinomeScan (DiscoverX)) EUB0000229b PAK6. The note with it: at 10 µM.
Sequence of Serine/threonine-protein kinase PAK 6 (Homo sapiens) (Q9NQU5 whole entry, looked up): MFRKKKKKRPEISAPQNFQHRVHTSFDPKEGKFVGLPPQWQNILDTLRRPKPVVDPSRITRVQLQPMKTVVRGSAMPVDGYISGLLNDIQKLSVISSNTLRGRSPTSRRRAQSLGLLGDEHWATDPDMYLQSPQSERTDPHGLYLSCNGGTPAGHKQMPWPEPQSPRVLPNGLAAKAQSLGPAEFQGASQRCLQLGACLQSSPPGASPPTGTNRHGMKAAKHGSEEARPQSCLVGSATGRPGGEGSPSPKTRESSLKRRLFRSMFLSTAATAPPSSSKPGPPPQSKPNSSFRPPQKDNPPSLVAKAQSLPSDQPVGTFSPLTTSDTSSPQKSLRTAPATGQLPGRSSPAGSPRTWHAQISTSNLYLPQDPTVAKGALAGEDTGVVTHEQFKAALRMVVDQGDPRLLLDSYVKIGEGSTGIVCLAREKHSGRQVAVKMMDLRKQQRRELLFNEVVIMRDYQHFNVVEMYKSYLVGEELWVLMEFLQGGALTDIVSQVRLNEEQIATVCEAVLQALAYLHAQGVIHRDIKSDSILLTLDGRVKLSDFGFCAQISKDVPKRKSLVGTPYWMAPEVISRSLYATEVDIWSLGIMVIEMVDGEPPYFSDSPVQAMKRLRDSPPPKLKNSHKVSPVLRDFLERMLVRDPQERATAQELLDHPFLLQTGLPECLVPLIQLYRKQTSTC
Experiment [5] has as its target MAP kinase-activated protein kinase 2 (Homo sapiens, UniProt P49137). The experiment can be described thus: Selectivity interaction (KinomeScan (DiscoverX)) EUB0000655a MAPKAPK2. The note with it: at 10 µM.
Experiment [6] concerns the target Tyrosine-protein kinase FRK (Homo sapiens) (UniProt P42685). Description: Selectivity interaction (KinomeScan (DiscoverX)) EUB0001619a FRK. The note with it: at 1 µM.
Experiment [7] deals with T3, Serine/threonine-protein kinase BRSK1 (Homo sapiens) (UniProt Q8TDC3).
T3 sequence (whole entry): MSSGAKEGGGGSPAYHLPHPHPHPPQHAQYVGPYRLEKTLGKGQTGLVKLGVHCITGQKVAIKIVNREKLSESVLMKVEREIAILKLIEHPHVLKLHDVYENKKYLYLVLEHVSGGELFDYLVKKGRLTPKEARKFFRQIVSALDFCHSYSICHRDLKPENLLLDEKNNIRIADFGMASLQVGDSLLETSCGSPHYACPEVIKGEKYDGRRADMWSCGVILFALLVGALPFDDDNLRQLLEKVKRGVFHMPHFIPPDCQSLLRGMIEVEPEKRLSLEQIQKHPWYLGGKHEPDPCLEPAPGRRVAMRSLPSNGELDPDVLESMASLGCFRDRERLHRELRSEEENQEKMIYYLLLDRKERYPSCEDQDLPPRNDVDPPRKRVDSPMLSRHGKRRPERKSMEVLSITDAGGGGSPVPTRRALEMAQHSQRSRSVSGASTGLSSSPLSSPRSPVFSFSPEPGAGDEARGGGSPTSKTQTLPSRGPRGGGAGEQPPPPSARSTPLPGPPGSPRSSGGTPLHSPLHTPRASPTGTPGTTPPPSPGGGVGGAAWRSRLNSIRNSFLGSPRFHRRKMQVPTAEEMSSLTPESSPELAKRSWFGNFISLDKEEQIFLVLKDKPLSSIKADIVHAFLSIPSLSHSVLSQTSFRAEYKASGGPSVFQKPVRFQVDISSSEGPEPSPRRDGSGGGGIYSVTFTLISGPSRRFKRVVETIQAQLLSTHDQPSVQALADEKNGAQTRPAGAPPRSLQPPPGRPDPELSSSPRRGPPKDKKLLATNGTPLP
The experiment can be described thus: Selectivity interaction (ProQinase) EUB0000171b BRSK1.

Sequence of MAP kinase-activated protein kinase 2 (P49137 whole entry, looked up): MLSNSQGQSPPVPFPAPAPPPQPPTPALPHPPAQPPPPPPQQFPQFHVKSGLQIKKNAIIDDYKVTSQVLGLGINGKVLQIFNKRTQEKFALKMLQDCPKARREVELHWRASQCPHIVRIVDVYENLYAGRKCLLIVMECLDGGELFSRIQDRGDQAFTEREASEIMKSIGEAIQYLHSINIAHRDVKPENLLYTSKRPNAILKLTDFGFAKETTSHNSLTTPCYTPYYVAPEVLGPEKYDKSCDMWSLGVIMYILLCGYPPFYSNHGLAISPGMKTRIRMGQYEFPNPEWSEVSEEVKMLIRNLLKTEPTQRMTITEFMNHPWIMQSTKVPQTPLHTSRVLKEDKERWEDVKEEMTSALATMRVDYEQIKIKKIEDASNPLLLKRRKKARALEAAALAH
Sequence of Tyrosine-protein kinase FRK (Homo sapiens) (P42685 whole entry): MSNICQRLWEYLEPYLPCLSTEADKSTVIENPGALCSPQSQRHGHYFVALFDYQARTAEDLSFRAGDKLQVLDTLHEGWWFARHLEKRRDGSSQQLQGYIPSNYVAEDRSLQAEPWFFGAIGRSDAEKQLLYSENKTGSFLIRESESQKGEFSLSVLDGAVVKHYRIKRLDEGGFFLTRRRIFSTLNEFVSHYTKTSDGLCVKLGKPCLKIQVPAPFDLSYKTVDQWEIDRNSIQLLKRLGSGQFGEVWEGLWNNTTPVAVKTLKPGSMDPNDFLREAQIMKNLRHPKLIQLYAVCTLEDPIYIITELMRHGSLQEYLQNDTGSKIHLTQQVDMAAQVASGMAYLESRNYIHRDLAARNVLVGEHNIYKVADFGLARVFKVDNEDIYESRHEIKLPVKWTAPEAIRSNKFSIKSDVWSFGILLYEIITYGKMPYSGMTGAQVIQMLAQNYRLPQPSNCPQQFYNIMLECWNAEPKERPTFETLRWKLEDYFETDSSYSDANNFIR

`CN(C)C/C=C/C(=O)Nc1ccc(C(=O)N2CCCC(Nc3ncc(Cl)c(-c4c[nH]c5ccccc45)n3)C2)cc1` (stereo not drawn) displayed a % of control in experiment [1] of 100%. `CNC(=O)Nc1ccc(-c2nc(N3CC4CCC(C3)O4)c3cnn(C4CCC5(CC4)OCCO5)c3n2)cc1` had a % of inhibition in experiment [2] of 12%. The molecule further returned a % of control in experiment [3] of 5.7%. In the case of `COc1cc(N(C)c2ccnc3ccc(C(F)(F)F)cc23)cc(OC)c1OC`, in experiment [4], the % binding is 91%. In turn, `CN(C)CCOc1ccc(-c2nc(-c3ccncc3)c(-c3ccc4c(c3)CC/C4=N\O)[nH]2)cc1` yielded a % of control in experiment [5] of 100%.

For `N#Cc1cccc(-c2c[nH]c3ncnc(N4CCOCC4)c23)c1`, in experiment [6], the % of control is 88%.

In the case of `C=CC(=O)Nc1cccc(C(=O)Nc2ccc(Nc3cc(-c4[nH]c(SC)nc4C)ccn3)cc2)c1`, the results for the % of control in experiment [7] (at 1 µM) and in experiment [7] (at 5 µM) were 107% and 95%, respectively.
